Where a name gives a salt, the structure may show the parent alone.
Columns and labels:
[1] = result in words, conditions not given
[2] = as compared to any other crystalline form
[3] = result in words, conditions not given; remark: listed apart in the source

stability [1]: stable
solubility in water [2]: more soluble in water
hygroscopicity [3]: non-hygroscopic
Compound: OCCOCCN1CCN(C2=Nc3ccccc3Sc3ccccc32)CC1 [amorphous quetiapine hydrochloride, Quetiapine Hydrochloride]

From patent US20070072840A1, “POLYMORPHIC FORMS OF QUETIAPINE” (priority 2005, published 2007)
